Measurements taken from the supplement of paper PMC10307832.

Assays:
Test in all cases: relative viability (nuclei count vs DMSO), 5 days (fraction); higher = more cells survive
[1] = compound: Cc1ccc(Nc2nccc(N(C)c3ccc4c(C)n(C)nc4c3)n2)cc1S(N)(=O)=O [Pazopanib] + CC(=O)Nc1cccc(-n2c(=O)n(C3CC3)c(=O)c3c(Nc4ccc(I)cc4F)n(C)c(=O)c(C)c32)c1 [Trametinib] (partner 0.02 µM)
Procedure, shortened: (§1)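 Cells from lung cancer lines were seeded into 1536-well plates and, one day later, dosed by pin tool. Treatments were either a single drug or a fixed dose of an anchor drug with five library-drug doses (not always all listed) in √10 steps. After 5 days, nuclei were stained in a one-step fixation (final 0.05% Triton X-100, 1% formaldehyde, 1 ug/ml Hoechst) and counted on 4× images, and relative viability is the treated-to-vehicle nuclei ratio, as the median of duplicate plates.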

[2] = compound: Cc1ccc(Nc2nccc(N(C)c3ccc4c(C)n(C)nc4c3)n2)cc1S(N)(=O)=O [Pazopanib] + CS(=O)(=O)N1CCN(Cc2cc3nc(-c4cccc5[nH]ncc45)nc(N4CCOCC4)c3s2)CC1 [Pictilisib] (partner 1 µM)
Procedure, shortened: as §1

[3] = compound: Cc1ccc(C(=O)Nc2ccc(CN3CCN(C)CC3)c(C(F)(F)F)c2)cc1C#Cc1cnc2cccnn12 [Ponatinib] + C[C@@H](Oc1cc(-c2cnn(C3CCNCC3)c2)cnc1N)c1c(Cl)ccc(F)c1Cl [Crizotinib] (partner 1 µM)
Procedure, shortened: as §1

[4] = compound: Cc1ccc(C(=O)Nc2ccc(CN3CCN(C)CC3)c(C(F)(F)F)c2)cc1C#Cc1cnc2cccnn12 [Ponatinib] + COc1cc2c(Oc3ccc(NC(=O)C4(C(=O)Nc5ccc(F)cc5)CC4)cc3F)ccnc2cc1OCCCN1CCOCC1 [Foretinib] (partner 0.25 µM)
Procedure, shortened: as §1

Cell Line | relative viability ([1]; first compound 0.01 µM) | relative viability ([1]; first compound 0.03162 µM) | relative viability ([1]; first compound 0.1 µM) | relative viability ([1]; first compound 0.3162 µM) | relative viability ([1]; first compound 1 µM) | relative viability ([2]; first compound 0.01 µM) | relative viability ([2]; first compound 0.03162 µM) | relative viability ([2]; first compound 0.1 µM) | relative viability ([2]; first compound 0.3162 µM) | relative viability ([2]; first compound 1 µM) | relative viability ([3]; first compound 0.002 µM) | relative viability ([3]; first compound 0.006325 µM) | relative viability ([3]; first compound 0.06325 µM) | relative viability ([3]; first compound 0.2 µM) | relative viability ([4]; first compound 0.002 µM) | relative viability ([4]; first compound 0.006325 µM) | relative viability ([4]; first compound 0.06325 µM) | relative viability ([4]; first compound 0.2 µM)
HCC-366 | 0.319 | 0.328 | 0.346 | 0.365 | 0.413 | 0.0942 | 0.155 | 0.116 | 0.164 | 0.159 | 0.474 | 0.506 | 0.531 | 0.519 | 0.887 | 0.939 | 0.955 | 0.956
NCI-H1395 | 0.833 | 1.14 | 1.05 | 1.01 | 0.952 | 0.534 | 0.746 | 0.685 | 0.661 | 0.674 |  |  |  |  | 0.903 | 0.996 | 0.945 | 0.904
NCI-H727 | 0.395 |  | 0.393 | 0.359 | 0.4 | 0.356 | 0.244 | 0.497 | 0.393 | 0.483 | 0.853 | 0.686 | 0.893 | 0.765 | 0.781 | 0.839 | 0.64 | 0.869
RERF-LC-KJ | 0.82 | 0.892 | 0.842 | 0.805 | 0.853 | 0.447 | 0.562 | 0.559 | 0.495 | 0.487 | 0.816 | 0.766 | 0.928 | 0.834 | 0.819 | 0.894 | 0.873 | 0.867
NCI-H1623 |  |  |  |  |  |  |  |  |  |  |  |  |  |  | 0.899 | 0.832 | 0.889 | 0.833
Calu-6 |  |  |  |  |  | 0.874 | 1.01 | 0.993 | 0.849 | 0.877 | 0.701 | 0.73 | 0.805 | 0.763 | 0.849 | 0.867 | 0.931 | 0.816
LC-2-ad | 0.905 | 0.934 | 0.89 | 0.915 | 0.858 | 0.412 | 0.436 | 0.515 | 0.196 | 0.527 | 0.482 | 0.417 | 0.418 | 0.421 | 0.915 | 0.859 | 0.966 | 0.842
CAL-12T | 0.32 | 0.437 | 0.331 | 0.437 | 0.446 | 0.335 | 0.461 | 0.527 | 0.401 | 0.423 | 0.774 | 0.653 | 0.756 | 0.614 | 1.16 | 0.979 | 1.21 | 1.09
SK-LU-1 | 0.42 | 0.499 | 0.516 | 0.54 | 0.54 | 0.434 | 0.636 | 0.543 | 0.633 | 0.589 | 0.804 | 0.948 | 0.963 | 0.777 | 0.852 | 0.795 | 0.826 | 0.63
NCI-H1650 | 0.725 | 0.682 | 0.734 | 0.629 | 0.695 | 0.54 | 0.696 | 0.529 | 0.611 | 0.661 | 1.03 | 0.939 | 1.17 | 0.821 | 1.36 | 1.07 | 1.55 | 1.31
